Data taken from EP0195433A1, “Amide derivatives processes for preparing them and use thereof” (GREEN CROSS CORPORATION, priority 1985, dated 1986).

Columns and labels:
carrageenan paw edema = assay: Anti-inflammatory activity, carrageenan paw edema method; assay type: in vivo, SD male rats; conditions: 25 mg/kg, i.p., 30 minutes before carrageenan; four hours after injection
Experimental: SD male rats (body weight: 150 - 180 g) were starved overnight and 25 mg/kg of a selected test compound was administered intraperitoneally to each rat. Thirty minutes later, 0.1 ml of a 1.5% solution of carrageenan in physiological saline was injected under the skin of the paw of a hind leg. Four hours after injection, the volume of the treated leg was measured with a mercury manometer and compared with the value prior to carrageenan injection in order to calculate the percentages of edema and its inhibition. Each of the test compounds was administered in a concentration of 5 mg/ml as a suspension in 5% gum arabic in physiological saline.

granuloma pouch = assay: Anti-inflammatory activity, granuloma pouch method; assay type: in vivo, SD male rats; conditions: 25 mg/kg/day orally for 8 consecutive days, eight days after croton oil injection; for Weight of Pouch: wet weight
Experimental: Pouches were made under the dorsal skin of SD male rats (body weight: 150 - 180 g) by injecting 20 ml of N2 gas in accordance with the method described in E. Itoga and Y. Miyake; Oyo yakuri, 66, 316 (1970). The rats were subsequently injected with 1 ml of 1% croton oil dissolved in cottonseed oil. Eight days after injection, the wet weight of each pouch and the volume of exudate therefrom were measured. Each of the test compounds was administered orally for 8 consecutive days on a single-dose-a-day basis..

[1] = tested on: secretion of gastric juice; assay: Inhibition of gastric juice secretion, pyloric ligation (method of Shay et al.); assay type: in vivo, Wistar male rats; conditions: 25 mg/kg, i.p., 4 hours after pyloric ligation; for Total Peptic Activity: casein as substrate; for Total Acid Output: titration with 0.02N NaOH
Experimental: The activity of each of the test compounds in inhibiting the secretion of gastric juice was measured by pyloric ligation in accordance with the method of Shay et al. described in H. Shay, S.A. Komarov, S.S. Fels et al.; Gastroenterology, 5, 43 (1945). Groups each consisting of 8 - 10 Wistar male rats weighing 150 - 200 g which had been starved for 48 hours were subjected to abdominal incision under ether anesthetization. After pyloric ligation, the incised abdomen of each animal was closed and the animal was kept away from food and water for 4 hours. The test compound was suspended in 5% gum arabic (in physiological saline) to give a concentration of 5 mg/ml, and the suspension was administered intraperitoneally to each rat in a dose of 25 mg/kg immediately after the closure of the incised abdomen. Four hours later, each rat was sacrificed with chloroform and the stomach was extracted. The gastric juice contained in the stomach was withdrawn and checked for its volume, total acidity and total pepsin activity.
The total acidity was determined by titration with 0.02N NaOH using phenolphthalein as an indicator. The total pepsin activity was determined in accordance with the method of Anson; Brit. J. Pharmacol., 13, 54 (1958) using casein as a substrate.

Aspirin ulcers = assay: Aspirin ulcer; assay type: in vivo, Wistar male rats; conditions: 20 mg/kg intraperitoneally, 7 hours; for Ulcer index: aspirin 150 mg/kg orally, total length of ulcers
Experimental: Aspirin ulcers were produced in Wistar male rats (body weight: 150 - 200 g) in accordance with the method described in S. Okabe, K. Takeuchi et al.; Jpn. J. Pharmacol., 24, 363 (1974).
The rats were starved for 24 hours and subjected to pyloric ligation. Immediately thereafter, 150 mg/kg of aspirin suspended in 5% gum arabic was administrered orally to each rat which was simultaneously injected with a selected test compound (20 mg/kg) intraperitoneally.
The rats were kept away from food and water for 7 hours. Thereafter, the stomach was extracted from each animal under ether anesthetization and fixed in formalin. The total length of the ulcers occurring in the glands of the extracted stomach was measured and used as an ulcer index.

HCl-ethanol ulcers = assay: HCl-ethanol ulcer; assay type: in vivo, Wistar male rats; conditions: for Percent inhibition: 20 mg/kg intraperitoneally; for Ulcer index: 20 mg/kg intraperitoneally 2 hours before 1.5 ml of 15 mM HCl in 60% ethanol orally, 1 hour
Experimental: HCl-ethanol ulcers were induced in Wistar male rats in accordance with the method described in S. Okabe, S. Ueki et al.; Oyo Yakuri, 27, 829 (1984).
The procedures of (2) were repeated except that 2 hours after the intraperitoneal injection of a selected test compound, 1.5 ml of 15 mM HC1 in 60% ethanol was administrered orally to each rat, which thereafter was kept for an additional 1 hour.

Stress ulcers = assay: Stress ulcer (restraint and water immersion); assay type: in vivo, Wistar male rats; conditions: 20 mg/kg intraperitoneally; for Ulcer index: restrained and immersed in water (22 ± 1°C) for 7 hours
Experimental: Stress ulcers were induced in Wistar male rats in accordance with the method described in K. Takagi and S. Okabe; Jpn. J. Pharmacol., 18, 9 (1968).
The procedures of (2) were repeated except that the rats were restrained immediately after the administration of a selected test compound and immersed in water (22 ± 1°C) for 7 hours.

Acetic acid ulcers = assay: Acetic acid ulcer; assay type: in vivo, Wistar male rats; conditions: 14 consecutive days
Experimental: .Acetic acid ulcers were induced in Wistar male rats in accordance with the method described in K. Takagi, S. Okabe et al.,; Jpn. J. Pharmacol., 19, 418 (1969).
Starting on the day of operation, each of the test compounds was administered orally to each rat for 14 consecutive days on a two-dose-a-day basis. The rats were starved for 24 hours after administration of the final dose. They then were sacrificed with chloroform and the stomach was extracted from each animal and fixed in formalin. The product of the length and breadth of each […] was determined and used as an ulcer index.

CCCCCC=CC(=O)NCCSCC(N)=O [Compound 4, NH2COCH2SCH2CH2NH-COCH=CH(CH2)4CH3] was tested, and the Percent inhibitaion (carrageenan paw edema) was 45.2%, the Percentage of edema (carrageenan paw edema) was 28.3% and the “Volume of Exudate” value (granuloma pouch) was 10.6 mL. The “Weight of Pouch” value (granuloma pouch) was 3.81 g.

For CCCCCCCC=CC(=O)NCCSCC(N)=O [Compound 6, NH2COCH2SCH2CH2NH-COCH=CH(CH2)6CH3], the “Gastric Volume” value [1] was 0.93 ml/100 g wt, the “Total Peptic Activity” value [1] was 81.5 mg as tyrosine/ 100 g wt and the “Total Acid Output” value [1] was 91.1 μ Eq/100 g wt. It also gave a Percent inhibition (Aspirin ulcers) of 49.7%, a Ulcer index (Aspirin ulcers) of 8.6 and a Percent inhibition (HCl-ethanol ulcers) of 69.7%. The Ulcer index (HCl-ethanol ulcers) was 12.5, the Percent inhibition (Stress ulcers) was 54.3% and the Ulcer index (Stress ulcers) was 13.3. It also gave a Percent healing (Acetic acid ulcers; 100 x 2 mg/kg/day orally) of 21.0%, a Ulcer index (Acetic acid ulcers; 100 x 2 mg/kg/day orally) of 45.8 and a Percent healing (Acetic acid ulcers; 200 x 2 mg/kg/day orally) of 27.4%. The Ulcer index (Acetic acid ulcers; 200 x 2 mg/kg/day orally) was 42.1, the Percent healing (Acetic acid ulcers; 400 x 2 mg/kg/day orally) was 34.0% and the Ulcer index (Acetic acid ulcers; 400 x 2 mg/kg/day orally) was 38.3.

CCCCCC=CC(=O)NCCSSCCNC(=O)C=CCCCCC [Compound 3, [SCH2CH2NH-COCH=CH(CH2)4CH3]2] was tested, and the Percent inhibitaion (carrageenan paw edema) was 29.7%, the Percentage of edema (carrageenan paw edema) was 36.3% and the “Volume of Exudate” value (granuloma pouch) was 8.5 mL. For the same compound, the “Weight of Pouch” value (granuloma pouch) was 4.34 g.

With CCCCCCCCCCC=CC(=O)NCCSSCCNC(=O)C=CCCCCCCCCCC [Compound 7, [SCH2CH2NH-COCH=CH(CH2)9CH3]2] the Percent inhibitaion (carrageenan paw edema) was 30.7% and the Percentage of edema (carrageenan paw edema) was 33.4%.

In the case of CCCCCCCCC=CC(=O)NCCSSCCNC(=O)C=CCCCCCCCC [Compound 1, [SCH2CH2NH-COCH=CH(CH2)7CH3]2], the “Gastric Volume” value [1] is reported as 2.10 ml/100 g wt, the “Total Peptic Activity” value [1] is reported as 139.9 mg as tyrosine/ 100 g wt and the “Total Acid Output” value [1] is reported as 229.2 μ Eq/100 g wt.

CCCCCCCCC=CC(=O)O [2-Undecenoic acid, reference compound] was tested, and the “Gastric Volume” value [1] was 2.46 ml/100 g wt, the “Total Peptic Activity” value [1] was 159.8 mg as tyrosine/ 100 g wt and the “Total Acid Output” value [1] was 318.1 μ Eq/100 g wt.

CCCCCCCCC=CC(=O)NCCSCC(N)=O [Compound 2, NH2COCH2SCH2CH2NH-COCH=CH(CH2)7CH3] was tested, and the “Gastric Volume” value [1] was 0.97 ml/100 g wt, the “Total Peptic Activity” value [1] was 70.9 mg as tyrosine/ 100 g wt and the “Total Acid Output” value [1] was 97.4 μ Eq/100 g wt. For the same compound, the Percent inhibition (Aspirin ulcers) was 76.4%, the Ulcer index (Aspirin ulcers) was 4.0 and the Percent inhibition (HCl-ethanol ulcers) was 70.5%. The Ulcer index (HCl-ethanol ulcers) was 12.2, the Percent inhibition (Stress ulcers) was 69.1% and the Ulcer index (Stress ulcers) was 9.0.

Work on CCCCCCCCCCC=CC(=O)NCCSCC(N)=O [Compound 8, NH2COCH2SCH2CH2NH-COCH=CH(CH2)9CH3] yielded a Percent inhibitaion (carrageenan paw edema) of 49.6% and a Percentage of edema (carrageenan paw edema) of 24.3%.
